From patent US10793580B2, “Substituted pyrazoloazepin-8-ones and their use as phosphodiesterase inhibitors” (LEO Pharma A/S, priority 2016, dated 2020)
Read-outs that look alike come from different tables or passages of the source.

Molecular target: human PDE4D catalytic domain (Homo sapiens (Human), UniProt Q08499)
Experiment: PDE4 Assay (TR-FRET, FAM-cAMP cleavage)
Type: biochemical
Conditions: read-out: PDE4 IC50 range
Description: The human PDE4D catalytic domain (UniProt no. Q08499 [S380-L740]) was incubated with a mixture of non-labelled cAMP (cyclic adenosine monophosphate) and fluorescein amidite (FAM) conjugated cAMP and titrated test or reference Compound. Following brief incubation the enzymatic reaction was stopped by addition of binding buffer containing nanoparticles with immobilized trivalent metal ions capable of binding 1) AMP phospho groups and 2) terbium (Tb) donor fluorophores. Subsequent excitation of the Tb donor triggers time-resolved FRET to adjacent FAM acceptor molecules resulting in light emission. In the presence of a PDE4 inhibitor, AMP generation was reduced resulting in a lower fluorescence signal. The cAMP phosphodiester is not bound by the detection system.
The results were calculated as the molar concentrations resulting in 50% inhibition of the substrate cleavage compared to controls samples, and are expressed as a range of IC50 (nM).

[1] = human PDE4D catalytic domain (UniProt Q08499 [S380-L740]), 50% inhibition of substrate cleavage

human PDE4D catalytic domain, sequence (Q08499 380-740): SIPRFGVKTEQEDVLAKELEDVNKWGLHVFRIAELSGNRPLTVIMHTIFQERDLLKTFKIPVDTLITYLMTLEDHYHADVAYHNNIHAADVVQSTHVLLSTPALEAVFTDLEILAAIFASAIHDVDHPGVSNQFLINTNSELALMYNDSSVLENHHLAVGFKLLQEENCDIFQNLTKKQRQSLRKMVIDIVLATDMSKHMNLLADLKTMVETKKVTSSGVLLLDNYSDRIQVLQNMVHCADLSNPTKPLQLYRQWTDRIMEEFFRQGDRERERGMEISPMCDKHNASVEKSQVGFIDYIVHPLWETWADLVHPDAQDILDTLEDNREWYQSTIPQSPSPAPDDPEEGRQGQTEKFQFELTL

Structure (SMILES)	IC50 [1]	also measured
CCn1nc(CCCOC(=O)c2cccc(OC)c2Cl)c2c1C(=O)NCC1(CCOCC1)C2 [Example 57, 3-(1-ethyl-8-oxo-spiro[6,7-dihydro-4H-pyrazolo[3,4-c]azepine-5,4′-tetrahydropyran]-3-yl)propyl 2-chloro-3-methoxy-benzoate]	< 100 nM	–
CCn1nc(CC(C)(C)COC(=O)c2ccc(C)cc2)c2c1C(=O)NCC1(CCOCC1)C2 [Example 188, [3-(1-ethyl-8-oxo-spiro[6,7-dihydro-4H-pyrazolo[3,4-c]azepine-5,4′-tetrahydropyran]-3-yl)-2,2-dimethyl-propyl] 4-methylbenzoate]	< 100 nM	–
CCn1nc(CCCOC(=O)c2ccc(S(=O)(=O)C3CCCC3)cc2)c2c1C(=O)NCC1(CCOCC1)C2 [Example 94, 3-(1-ethyl-8-oxo-spiro[6,7-dihydro-4H-pyrazolo[3,4-c]azepine-5,4′-tetrahydropyran]-3-yl)propyl 4-cyclopentylsulfonylbenzoate]	< 100 nM	–
CCn1nc(CCCOC(=O)c2c(F)cccc2F)c2c1C(=O)NCC1(CCOCC1)C2 [Example 26, 3-(1-ethyl-8-oxo-spiro[6,7-dihydro-4H-pyrazolo[3,4-c]azepine-5,4′-tetrahydropyran]-3-yl)propyl 2,6-difluorobenzoate]	< 100 nM	–
CCn1nc(C[C@@H](C)COC(=O)c2cccc(S(=O)(=O)CC)c2)c2c1C(=O)NCC1(CCOCC1)C2 [Example 156, [(2R)-3-(1-ethyl-8-oxo-spiro[6,7-dihydro-4H-pyrazolo[3,4-c]azepine-5,4′-tetrahydropyran]-3-yl)-2-methyl-propyl] 3-ethylsulfonylbenzoate]	< 100 nM	–
CCn1nc(CCCOC(=O)c2ccc(C(=O)N3CCCCC3)cc2)c2c1C(=O)NCC1(CCOCC1)C2 [Example 108, 3-(1-ethyl-8-oxo-spiro[6,7-dihydro-4H-pyrazolo[3,4-c]azepine-5,4′-tetrahydro-pyran]-3-yl)propyl 4-(piperidine-1-carbonyl)benzoate]	< 100 nM	–
CCn1nc(CC(C)(C)COC(=O)c2cncs2)c2c1C(=O)NCC1(CCOCC1)C2 [Example 306, [3-(1-ethyl-8-oxo-spiro[6,7-dihydro-4H-pyrazolo[3,4-c]azepine-5,4′-tetrahydro-pyran]-3-yl)-2,2-dimethyl-propyl] thiazole-5-carboxylate]	–	IC50 (Table 17, Examples 297-316): < 100 nM
CCn1nc(C[C@@H](C)COC(=O)c2cc(C)n(C)n2)c2c1C(=O)NCC1(CCOCC1)C2 [Example 289, [(2R)-3-(1-ethyl-8-oxo-spiro[6,7-dihydro-4H-pyrazolo[3,4-c]azepine-5,4′-tetrahydropyran]-3-yl)-2-methyl-propyl] 1,5-dimethylpyrazole-3-carboxylate]	–	IC50 (Table 16, Examples 277-296): < 100 nM
CCn1nc(C[C@@H](C)COC(=O)c2ccc(C(C)=O)cc2)c2c1C(=O)NCC1(CCOCC1)C2 [Example 153, [(2R)-3-(1-ethyl-8-oxo-spiro[6,7-dihydro-4H-pyrazolo[3,4-c]azepine-5,4′-tetrahydropyran]-3-yl)-2-methyl-propyl] 4-acetylbenzoate]	< 100 nM	–
CCn1nc(CCCOC(=O)c2ccc(C#N)cc2)c2c1C(=O)NCC1(CCOCC1)C2 [Example 12, 3-(1-ethyl-8-oxo-spiro[6,7-dihydro-4H-pyrazolo[3,4-c]azepine-5,4′-tetrahydropyran]-3-yl) propyl 4-cyanobenzoate]	< 100 nM	–
CCn1nc(C[C@@H](C)COC(=O)CCS(C)(=O)=O)c2c1C(=O)NCC1(CCOCC1)C2 [Example 152, [(2R)-3-(1-ethyl-8-oxo-spiro[6,7-dihydro-4H-pyrazolo[3,4-c]azepine-5,4′-tetrahydropyran]-3-yl)-2-methyl-propyl] 3-methylsulfonylpropanoate]	< 100 nM	–
CCn1nc(CCCOC(=O)C2CCOC2)c2c1C(=O)NCC1(CCOCC1)C2 (stereo not shown) [Example 236, 3-(1-ethyl-8-oxo-spiro[6,7-dihydro-4H-pyrazolo[3,4-c]azepine-5,4′-tetrahydro-pyran]-3-yl)propyl tetrahydrofuran-3-carboxylate]	< 100 nM	–
CCn1nc(C[C@@H](C)COC(=O)C2CCN(C(C)=O)CC2)c2c1C(=O)NCC1(CCOCC1)C2 [Example 294, [(2R)-3-(1-ethyl-8-oxo-spiro[6,7-dihydro-4H-pyrazolo[3,4-c]azepine-5,4′-tetrahydropyran]-3-yl)-2-methyl-propyl] 1-acetylpiperidine-4-carboxylate]	–	IC50 (Table 16, Examples 277-296): < 100 nM
CCn1nc(CCCOC(=O)c2cccc(S(N)(=O)=O)c2)c2c1C(=O)NCC1(CCOCC1)C2 [Example 66, 3-(1-ethyl-8-oxo-spiro[6,7-dihydro-4H-pyrazolo[3,4-c]azepine-5,4′-tetrahydropyran]-3-yl)propyl 3-sulfamoylbenzoate]	< 100 nM	–
CCn1nc(C[C@@H](C)COC(=O)c2ccc(S(C)(=O)=O)cc2)c2c1C(=O)NCC1(CCOCC1)C2 [Example 155, [(2R)-3-(1-ethyl-8-oxo-spiro[6,7-dihydro-4H-pyrazolo[3,4-c]azepine-5,4′-tetrahydropyran]-3-yl)-2-methyl-propyl] 4-methylsulfonylbenzoate]	< 100 nM	–
CCn1nc(CC(C)(C)COC(=O)c2cnc(C)nc2)c2c1C(=O)NCC1(CCOCC1)C2 [Example 308, [3-(1-ethyl-8-oxo-spiro[6,7-dihydro-4H-pyrazolo[3,4-c]azepine-5,4′-tetrahydropyran]-3-yl)-2,2-dimethyl-propyl] 2-methylpyrimidine-5-carboxylate]	–	IC50 (Table 17, Examples 297-316): < 100 nM
CCn1nc(CCCCOC(=O)C2CCCC2)c2c1C(=O)NCC1(CCOCC1)C2 [Example 122, 4-(1-ethyl-8-oxo-spiro[6,7-dihydro-4H-pyrazolo[3,4-c]azepine-5,4′-tetrahydropyran]-3-yl)butyl cyclopentane-carboxylate]	< 100 nM	–
CCn1nc(C[C@@H](C)COC(=O)c2cccc(S(=O)(=O)N3CCN(C(C)=O)CC3)c2)c2c1C(=O)NCC1(CCOCC1)C2 [Example 166, [(2R)-3-(1-ethyl-8-oxo-spiro[6,7-dihydro-4H-pyrazolo[3,4-c]azepine-5,4′-tetrahydropyran]-3-yl)-2-methyl-propyl] 3-(4-acetylpiperazin-1-yl)sulfonylbenzoate]	< 100 nM	–
CCn1nc(C[C@@H](C)COC(=O)c2ccn(C)n2)c2c1C(=O)NCC1(CCOCC1)C2 [Example 278, [(2R)-3-(1-ethyl-8-oxo-spiro[6,7-dihydro-4H-pyrazolo[3,4-c]azepine-5,4′-tetrahydropyran]-3-yl)-2-methyl-propyl] 1-methylpyrazole-3-carboxylate]	–	IC50 (Table 16, Examples 277-296): < 100 nM
CCn1nc(C[C@@H](C)COC(=O)c2ccc(C(=O)N3CCN(C)CC3)cc2)c2c1C(=O)NCC1(CCOCC1)C2 [Example 175, [(2R)-3-(1-ethyl-8-oxo-spiro[6,7-dihydro-4H-pyrazolo[3,4-c]azepine-5,4′-tetrahydropyran]-3-yl)-2-methyl-propyl] 4-(4-methylpiperazine-1-carbonyl)benzoate]	< 100 nM	–
CCn1nc(CCCCOC(=O)C2CCN(C(C)=O)CC2)c2c1C(=O)NCC1(CCOCC1)C2 [Example 274, 4-(1-ethyl-8-oxo-spiro[6,7-dihydro-4H-pyrazolo[3,4-c]azepine-5,4′-tetrahydropyran]-3-yl)butyl 1-acetylpiperidine-4-carboxylate]	< 100 nM	–
CCn1nc(CC(C)(C)COC(=O)c2ccc(S(=O)(=O)NC)cc2)c2c1C(=O)NCC1(CCOCC1)C2 [Example 205, [3-(1-ethyl-8-oxo-spiro[6,7-dihydro-4H-pyrazolo[3,4-c]azepine-5,4′-tetrahydropyran]-3-yl)-2,2-dimethyl-propyl] 4-(methylsulfamoyl)benzoate]	< 100 nM	–
CCn1nc(CCCOC(=O)c2c(F)cccc2Cl)c2c1C(=O)NCC1(CCOCC1)C2 [Example 52, 3-(1-ethyl-8-oxo-spiro[6,7-dihydro-4H-pyrazolo[3,4-c]azepine-5,4′-tetrahydropyran]-3-yl)propyl 2-chloro-6-fluoro-benzoate]	< 100 nM	–
CCn1nc(CC(C)(C)COC(=O)c2cocn2)c2c1C(=O)NCC1(CCOCC1)C2 [Example 297, [3-(1-ethyl-8-oxo-spiro[6,7-dihydro-4H-pyrazolo[3,4-c]azepine-5,4′-tetrahydro-pyran]-3-yl)-2,2-dimethyl-propyl] oxazole-4-carboxylate]	–	IC50 (Table 17, Examples 297-316): < 100 nM
CCn1nc(CCCOC(=O)c2cccc(C(=O)N3CCOCC3)c2)c2c1C(=O)NCC1(CCOCC1)C2 [Example 118, 3-(1-ethyl-8-oxo-spiro[6,7-dihydro-4H-pyrazolo[3,4-c]azepine-5,4′-tetrahydropyran]-3-yl)propyl 3-(morpholine-4-carbonyl)benzoate]	< 100 nM	–
CCn1nc(C[C@@H](C)COC(=O)c2ccc(C(=O)N3CCN(C(C)=O)CC3)cc2)c2c1C(=O)NCC1(CCOCC1)C2 [Example 176, [(2R)-3-(1-ethyl-8-oxo-spiro[6,7-dihydro-4H-pyrazolo[3,4-c]azepine-5,4′-tetrahydropyran]-3-yl)-2-methyl-propyl] 4-(4-acetylpiperazine-1-carbonyl)benzoate]	< 100 nM	–
CCn1nc(CCCOC(=O)c2c(F)cccc2OC)c2c1C(=O)NCC1(CCOCC1)C2 [Example 41, 3-(1-ethyl-8-oxo-spiro[6,7-dihydro-4H-pyrazolo[3,4-c]azepine-5,4′-tetrahydropyran]-3-yl)propyl 2-fluoro-6-methoxy-benzoate]	< 100 nM	–
CCn1nc(CCCOC(=O)C2CCN(C(=O)N(C)C)CC2)c2c1C(=O)NCC1(CCOCC1)C2 [Example 264, 3-(1-ethyl-8-oxo-spiro[6,7-dihydro-4H-pyrazolo[3,4-c]azepine-5,4′-tetrahydro-pyran]-3-yl)propyl 1-(dimethyl-carbamoyl)piperidine-4-carboxylate]	< 100 nM	–
